Assay type in all cases: cell-based
Assay [1] has as its target T1, IDO1 (Homo sapiens, UniProt P14902). Put plainly: IDO1 cellular assay in Hela cells stimulated with IFNγ. Conditions: IFNγ 100 ng/mL, 300 uM L-tryptophan, about 48 hours, fluorescence readout. As for the experimental part: IDO1 Cellular Assay in Hela Cells Stimulated with IFNγ
Hela cells were cultured in complete Hela culture medium (90% EMEM, 10% heat-inactivated fetal bovine serum) and expanded to about 1×10^9 cells. The cells were then collected and frozen down at 1×10^7 cells/vial in 1 mL frozen medium (90% complete Hela culture medium, 10% DMSO)
Compounds to be tested were serially diluted in ten 3-fold steps in DMSO starting from 10 mM DMSO stocks in Echo low volume plate(s).
Frozen Hela cells were thawed and transferred into Hela assay medium (99% complete Hela culture medium, 1% Pen/Strep) with 20 mL medium/vial of cells. The cells were spun down at 250 g in a table top centrifuge for 5 min and suspended in same volume of Hela assay medium. […] Sterile L-tryptophan were added to the cells with final concentration of 300 uM L-tryptophan. A small aliquot (2 mL/plate) of Hela cells were set aside and were not treated with IFNγ, to serve as the Max-E control.
Hela cells with and without IFNγ were dispensed to the respective wells of 384-well assay plates containing the compounds. The plates were incubated for about 48 hours at a 37° C., 5% CO2 incubator. Afterwards, […] of 0.5 M methyl isonipecotate in dimethyl sulfoxide were added into each well and the plates were sealed and incubated at 37° C. without CO2 overnight. The plates were centrifuged for 1 min at 200×g. The resulting fluorescence was measured in a Spectramax plate reader (Molecular Devices) with a 400 nm excitation filter and a 510 nm emission filter.
Potencies were calculated by linear least squares fit to the four parameter logistic IC50 equation.

In assay [2] the target is T1, IDO1. The assay is described as follows: IDO1 HEK293 cellular assay. Conditions: HEK293 cells transfected with Flag-IDO1 vector, 20-24 hours, fluorescence readout. As for the experimental part:
IDO1 HEK293 Cellular Assay
Compounds to be tested were serially diluted in ten 3-fold steps in DMSO starting from 10 mM DMSO stocks. Compound dilutions or DMSO alone were then dispensed from the dilution plate into a Greiner black 384-well assay plate (catalog #781086) using an Echo 550 acoustic liquid handler (Labcyte).
HEK293 cell pellets were resuspended to 5×10^5 cells/mL in complete HEK293 culture media (89% DMEM, 10% FBS, 1% penicillin/streptomycin). Suspended cells (2 mL) were dispensed into each well of a 6-well Corning plate (Catalog # 3516). Cells were allowed to attach and were incubated for 20 hours at 37° C. in a 5% CO2 incubator. Flag-IDO1 vector (Genscript True ORF Gold, 2 ug) in 150 uL of Opti-MEM medium was added to each well of a Corning 24 well plate (Cat # 3527) and incubated for 5 minutes at room temperature. To each well of the 24-well plate was added […] Lipofectamine 2000 (Gibco) and the plate incubated at room temperature for 20-30 minutes. To each well of attached cells in the 6-well plate, […] of the transfection mix from the 24-well plate was gently added to each well and IDO1 protein was allowed to express for 24-30 hours at 37 degrees Celsius in a 5% CO2 incubator.
Media was removed from the cells which were then washed with 2 mL Dulbecco's phosphate-buffered saline (DPBS). After removal of DPBS, 0.5 mL of TrypLE (Gibco) was added and incubated at 5 minutes until cells lift from the surface of the wells. Complete HEK293 culture media (4 mL) was added to each well and cells were collected and pooled into a conical tube. Cells were pelleted at 200×g for 5 minutes and resuspended in an equal volume of complete DMEM medium. Cells were diluted to 4×10^5 cells per mL in complete HEK293 media. L-Tryptophan was added to added to give a final concentration of […]. The diluted transfected cells […] or nontransfected cells […] were dispensed into wells of Greiner black 384-well assay plates (catalog #781086) containing previously diluted compounds. The plate is briefly mixed and centrifuged at 200×g for 10 seconds to collect cells at the bottom of the plate. Plates were covered and incubated for 20-24 hours at 37 degrees C. in a 5% CO2 incubator. Afterwards […] of 0.5 M methyl isonipecotate in dimethyl sulfoxide was added to each well, mixed, sealed, and centrifuged at 500 rpm for 10 seconds. Plates were incubated at 37 degrees in a 5% CO2 incubator overnight to develop fluoresence. The plates are allowed to cool and then centrifuged for 1 minute at 1000×g. The resulting fluoresence was measured in an Envision plate reader (Perkin Elmer) with a 400/25 nm excitation filter and an 510/20 nm emission filter.
The fluoresence intensity of each well was corrected for the background observed in wells with untransfected cells and was expressed as a fraction of the intensity observed in wells of IDO1 transfected cells and DMSO only. Potencies were calculated by linear least squares fit to the four parameter logistic IC50 equation.

Another assay addresses T2, TDO (Homo sapiens, UniProt P48775).
T2 construct: endogenous in cells; host or cells: SW48 cells (A2780 cells as low-TDO control)
The assay is described as follows: TDO cellular assay in frozen SW48 cells. The conditions noted are these: 300 uM L-tryptophan, about 48 hours, fluorescence readout. As for the experimental part: TDO Cellular Assay in Frozen SW48 Cells
SW48 cells were cultured in complete RPMI culture medium (90% RPMI, 10% heat-inactivated fetal bovine serum).
Compounds to be tested were serially diluted in ten 3-fold steps in DMSO starting from 10 mM DMSO stocks in Echo low volume plate(s). […] The cells were spun down at 350 g in a table top centrifuge for 5 minutes and suspended in same volume of RPMI assay medium. […] Sterile L-tryptophan (Sigma, Cat #T0254) was added to the cells with final concentration of 300 uM.
SW48 and A2780 cells were dispensed to the respective wells of 384-well assay plates containing the compounds. The plates were incubated for about 48 hours at a 37° C., 5% CO2 incubator. Afterwards, 12 μL of 0.5 M ethyl isonipecotate (Sigma Aldrich, Cat #E33505) in dimethyl sulfoxide were added into each well and the plates were sealed and incubated at 37° C. without CO2 overnight. The plates were centrifuged for 1 minute at 200×g. The resulting fluorescence was measured in a Spectramax plate reader (Molecular Devices) with a 400 nm excitation filter and a 510 nm emission filter.
The fluorescence intensity of each well was corrected for the background observed in wells with A2780 cells and was expressed as a fraction of the intensity observed in wells of SW48 cells and DMSO only. Potencies were calculated by linear least squares fit to the four parameter logistic IC50 equation.

Some results are limits rather than exact numbers.

From patent US11111232B2, “Substituted cyclobutylpyridine and cyclobutylpyrimidine compounds as indoleamine 2,3-dioxygenase (IDO) inhibitors” (MERCK SHARP & DOHME CORP., priority 2017, dated 2021) come the findings set out here.

T2 sequence (P48775 whole entry): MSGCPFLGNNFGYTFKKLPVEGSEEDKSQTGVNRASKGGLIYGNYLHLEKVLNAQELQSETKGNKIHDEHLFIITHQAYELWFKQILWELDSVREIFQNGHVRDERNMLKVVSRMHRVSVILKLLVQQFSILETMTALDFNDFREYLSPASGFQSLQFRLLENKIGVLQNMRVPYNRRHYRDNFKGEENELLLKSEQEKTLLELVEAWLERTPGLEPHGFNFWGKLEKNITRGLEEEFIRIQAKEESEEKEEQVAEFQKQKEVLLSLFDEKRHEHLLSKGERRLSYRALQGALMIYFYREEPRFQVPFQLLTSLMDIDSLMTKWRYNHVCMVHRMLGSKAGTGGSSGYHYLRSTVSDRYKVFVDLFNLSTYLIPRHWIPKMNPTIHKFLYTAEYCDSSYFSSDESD
T1 sequence (P14902 whole entry): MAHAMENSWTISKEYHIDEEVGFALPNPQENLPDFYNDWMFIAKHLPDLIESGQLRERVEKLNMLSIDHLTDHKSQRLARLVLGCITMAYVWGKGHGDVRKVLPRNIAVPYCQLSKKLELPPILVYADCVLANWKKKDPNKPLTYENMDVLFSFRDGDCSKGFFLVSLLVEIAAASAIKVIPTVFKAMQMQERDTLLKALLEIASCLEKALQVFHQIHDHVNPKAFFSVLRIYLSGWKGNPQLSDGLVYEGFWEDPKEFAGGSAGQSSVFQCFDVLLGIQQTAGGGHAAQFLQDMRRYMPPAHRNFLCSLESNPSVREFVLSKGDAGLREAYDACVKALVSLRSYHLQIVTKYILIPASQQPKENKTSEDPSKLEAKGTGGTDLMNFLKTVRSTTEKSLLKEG

Turning to `O=C(CCC(F)(F)F)Nc1ccc(C2(C(=O)Nc3ccc(F)cc3)CCC2)cn1` [Example 5, N-(4-fluorophenyl)-1-(6-(4,4,4-trifluorobutanamido)pyridin-3-yl)cyclobutane-1-carboxamide], the IC50 against IDO1 [1] was 72 nM; on IDO1 [2], 76 nM; at TDO it was at least 10000 nM.

On to `O=C(CC1CC1)Nc1ccc(C2(C(=O)Nc3ccc(F)cc3)CCC2)cn1` [Example 30, 1-{6-[(cyclopropylacetyl)amino]pyridin-3-yl}-N-(4-fluorophenyl)cyclobutane-1-carboxamide], for which the figures for the IC50 at IDO1 [1], against IDO1 [2] and at TDO were 83 nM, 70 nM and at least 10000 nM, respectively.

Take `O=C(CCC1CC1)Nc1ccc(C2(C(=O)Nc3ccc(F)cc3)CCC2)cn1` [Example 18, 1-{6-[(3-cyclopropylpropanoyl)amino]pyridin-3-yl}-N-(4-fluorophenyl)cyclobutane-1-carboxamide]: the IC50 at IDO1 [1] is 29 nM; against IDO1 [2] it was 32 nM; against TDO, at least 10000 nM.

Turning to `O=C(Nc1ccc(C2(C(=O)Nc3ccc(F)cc3)CCC2)cn1)C1CCCC(F)(F)C1` (stereo not drawn) [Example 17, 3,3-difluoro-N-(5-{1-[(4-fluorophenyl)carbamoyl]cyclobutyl}pyridin-2-yl)cyclohexane-1-carboxamide], the figures for the IC50 on IDO1 [1], on IDO1 [2] and on TDO were 28 nM, 26 nM and at least 10000 nM, respectively.

Turning to `CC(C)CC(=O)Nc1ccc(C2(C(=O)Nc3ccc(F)cc3)CCC2)cn1` [Example 27, N-(4-fluorophenyl)-1-{6-[(3-methylbutanoyl)amino]pyridin-3-yl}cyclobutane-1-carboxamide], the IC50 against IDO1 [1] was 25 nM; on IDO1 [2], 28 nM; against TDO, at least 10000 nM.

On to `O=C(Nc1ccc(C2(C(=O)Nc3ccc(F)cc3)CCC2)cn1)C1CCCOC1` (stereo not drawn) [Example 22, N-(5-{1-[(4-fluorophenyl)carbamoyl]cyclobutyl}pyridin-2-yl)oxane-3-carboxamide], for which the IC50 against IDO1 [1] is 154 nM; against IDO1 [2] it was 123 nM; against TDO, at least 10000 nM.

In the case of `O=C(Nc1ccc(C2(C(=O)Nc3ccc(F)cc3)CCC2)cn1)C1CCOCC1` [Example 20, N-(5-{1-[(4-fluorophenyl)carbamoyl]cyclobutyl}pyridin-2-yl)oxane-4-carboxamide], the IC50 is 138 nM against IDO1 [1], 156 nM against IDO1 [2] and at least 10000 nM against TDO.
